pKi: −log10 of the molar value.
Target: T1, Human-A1 (CHO-A1) (Homo sapiens, UniProt P30542)
T1 construct: expressed in transfected cells; host or cells: CHO cells, stably transfected (CHO-A1)
T1 sequence (P30542 1-326): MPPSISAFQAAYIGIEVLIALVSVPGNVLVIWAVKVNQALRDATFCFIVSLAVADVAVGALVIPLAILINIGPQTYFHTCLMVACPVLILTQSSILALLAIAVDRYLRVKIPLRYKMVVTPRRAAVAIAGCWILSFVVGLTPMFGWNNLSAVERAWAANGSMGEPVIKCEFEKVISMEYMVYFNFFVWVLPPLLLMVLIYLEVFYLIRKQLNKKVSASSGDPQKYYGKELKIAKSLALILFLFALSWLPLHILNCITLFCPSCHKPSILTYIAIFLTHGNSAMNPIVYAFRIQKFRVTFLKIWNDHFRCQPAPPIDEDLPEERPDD
Experiment: Radioligand binding, human A1 AdoR, CHO-A1 membranes
Conditions: not given
Experimental: (§1) The cDNAs for human A1, A2A, A2B or A3 AdoRs were prepared by RT-PCR from total RNA of human cells or tissues and sequenced on both strands. The expression vector containing each of these cDNAs and a second vector containing a neomycin or puromycin-resistance gene were introduced to HEK-293 or CHO cells by Lipofectin-Plus (Life Technology). Colonies were selected by growing transfected cells in the presence of neomycin or puromycin. Stably transfected cells were maintained in Dulbecco's modified Eagle's medium (DMEM) or F-12 medium with 10% fetal bovine serum, 100 μg/ml penicillin, 100 μg/ml streptomycin and appropriate concentrations of neomycin or puromycin. These stably transfected cells were referred to as HEK-“AdoR” or CHO-“AdoR” depending on the receptors that they express. The cell lines used routinely were CHO-A1, HEK-A2A, HEK-A2B.and CHO-A3 cells. In addition, hamster DDT1 MF-2 cells that express endogenous A1 AdoRs were also used to determine the binding activities of compounds for A1 AdoRs.
(§2) Monolayers of transfected cells or DDT1 MF-2 were washed with phosphate buffered saline (PBS) and harvested in a buffer containing 10 mM HEPES (pH 7.4), 10 mM EDTA and protease inhibitors. The cells were homogenized in polytron for 1 minute at setting 4 and centrifuged at 29000 g for 15 minutes at 4° C. The cell pellets were washed with a buffer containing 10 mM HEPES (pH7.4), 1 mM EDTA and protease inhibitors, and were resuspended in the same buffer supplemented with 10% sucrose. Frozen aliquots were kept at −80° C.
(§3) The affinities of compounds for A1, A2A, A2B or A3 AdoRs were determined in competition studies using radioligands such as ^3H—CPX (A1 antagonist), or ^3H—CCPA (A1 agonist), ^3H-ZM241385 (A2A antagonist) or ^3H-CGS21680 (A2A agonist), ^3H-ZM241385 (A2B antagonist) or ^125I-AB-MECA (A3 agonist) and membranes of corresponding cells. […] The assays were incubated for 60-90 minutes, stopped by filtration onto GF/B filter plates using Packard Harvester and washed four times with ice-cold TM buffer (10 mM Tris, 1 mM MgCl2, pH 7.4). The amounts of radioligands that bound to the GF/B filter plates were determined by scintillation counting. Nonspecific binding were determined in the presence of 1-10 μM of cold ligands. Bmax and KD values were calculated using GraphPad software.

| Structure (SMILES) | pKi |
| --- | --- |
| Cn1c(-c2ccc(O)cc2)nc2c(NC3CCCC3)ncnc21 [4-[6-(cyclopentylamino)-9-methylpurin-8-yl]phenol] | 8.05 |

Same assay, conditions: 3H-CPX radioligand; CHO-A1 membranes; read-out: Ki (low) Human-A1 CHO-A1

| pKi | Structure (SMILES) |
| --- | --- |
| 7.49 | COc1ccc(-c2nc3c(NC4CCCC4)ncnc3n2C)cc1 [cyclopentyl[8-(4-methoxyphenyl)-9-methylpurin-6-yl]amine] |
| 8.30 | Cc1ccc(-c2nc3c(NC4CCCC4)ncnc3n2C)cc1 [cyclopentyl[9-methyl-8-(4-methylphenyl)purin-6-yl]amine] |
| 7.38 | Cc1ccccc1-c1nc2c(NC3CCCC3)ncnc2n1C [cyclopentyl[9-methyl-8-(2-methylphenyl)purin-6-yl]amine] |
| 8.30 | Cc1cccc(-c2nc3c(NC4CCCC4)ncnc3n2C)c1 [cyclopentyl[9-methyl-8-(3-methylphenyl)purin-6-yl]amine] |

Second part, the molecule before the results:

| Structure (SMILES) | pKi |
| --- | --- |
| CCCn1c(-c2ccccc2)nc2c(NC3CCCCC3)ncnc21 [cyclohexyl(8-phenyl-9-propylpurin-6-yl)amine] | 7.60 |
| Cn1c(-c2cccc(Cl)c2)nc2c(NC3CCCC3)ncnc21 [[8-(3-chlorophenyl)-9-methylpurin-6-yl]cyclopentylamine] | 8.30 |
| Cn1c(-c2ccccc2)nc2c(NC3CCCCC3)ncnc21 [cyclohexyl(9-methyl-8-phenylpurin-6-yl)amine] | 8.70 |
| CCn1c(-c2ccccc2)nc2c(NC3CCCCC3)ncnc21 [cyclohexyl(9-ethyl-8-phenylpurin-6-yl)amine] | 7.96 |
| Cn1c(-c2ccc(F)cc2)nc2c(NC3CCCC3)ncnc21 [cyclopentyl[8-(4-fluorophenyl)-9-methylpurin-6-yl]amine] | 8.30 |
| Cn1c(-c2cccnc2)nc2c(NC3CCCC3)ncnc21 [cyclopentyl(9-methyl-8-(3-pyridyl)purin-6-yl)amine] | 6.74 |
| Cn1c(-c2ccc(Cl)cc2)nc2c(NC3CCCC3)ncnc21 [[8-(4-chlorophenyl)-9-methylpurin-6-yl]cyclopentylamine] | 8.05 |

Target: T2, Hamster-A1 (DDT1 MF-2) (Mesocricetus auratus, UniProt A0A1U8BVR4)
T2 sequence (A0A1U8BVR4 1-326): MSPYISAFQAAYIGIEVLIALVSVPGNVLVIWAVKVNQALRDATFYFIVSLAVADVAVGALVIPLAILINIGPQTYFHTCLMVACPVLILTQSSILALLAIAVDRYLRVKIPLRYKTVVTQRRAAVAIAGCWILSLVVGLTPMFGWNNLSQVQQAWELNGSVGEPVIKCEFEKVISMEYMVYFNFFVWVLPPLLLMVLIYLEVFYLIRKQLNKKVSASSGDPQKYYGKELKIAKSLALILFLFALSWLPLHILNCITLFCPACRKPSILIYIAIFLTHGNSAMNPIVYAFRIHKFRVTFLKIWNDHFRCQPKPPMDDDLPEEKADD
Experiment: Radioligand binding, hamster A1 AdoR, DDT1 MF-2 membranes
Conditions: not given
Experimental: as §1, §2, §3

| Structure (SMILES) | pKi |
| --- | --- |
| Cn1c(-c2ccc(O)cc2)nc2c(NC3CCCC3)ncnc21 [4-[6-(cyclopentylamino)-9-methylpurin-8-yl]phenol] | 8.40 |

Same assay, conditions: 3H-CPX radioligand; DDT1 MF-2 membranes; read-out: Ki (low) Hamster-A1 DDT1 MF-2

| pKi | Structure (SMILES) |
| --- | --- |
| 7.66 | COc1ccc(-c2nc3c(NC4CCCC4)ncnc3n2C)cc1 [cyclopentyl[8-(4-methoxyphenyl)-9-methylpurin-6-yl]amine] |
| 8.52 | Cc1ccc(-c2nc3c(NC4CCCC4)ncnc3n2C)cc1 [cyclopentyl[9-methyl-8-(4-methylphenyl)purin-6-yl]amine] |
| 7.70 | Cc1ccccc1-c1nc2c(NC3CCCC3)ncnc2n1C [cyclopentyl[9-methyl-8-(2-methylphenyl)purin-6-yl]amine] |
| 8.70 | Cc1cccc(-c2nc3c(NC4CCCC4)ncnc3n2C)c1 [cyclopentyl[9-methyl-8-(3-methylphenyl)purin-6-yl]amine] |

The next lines start with the molecule.

| Structure (SMILES) | pKi |
| --- | --- |
| CCCn1c(-c2ccccc2)nc2c(NC3CCCCC3)ncnc21 [cyclohexyl(8-phenyl-9-propylpurin-6-yl)amine] | 7.96 |
| Cn1c(-c2cccc(Cl)c2)nc2c(NC3CCCC3)ncnc21 [[8-(3-chlorophenyl)-9-methylpurin-6-yl]cyclopentylamine] | 8.52 |
| Cn1c(-c2ccccc2)nc2c(NC3CCCCC3)ncnc21 [cyclohexyl(9-methyl-8-phenylpurin-6-yl)amine] | 9.00 |
| CCn1c(-c2ccccc2)nc2c(NC3CCCCC3)ncnc21 [cyclohexyl(9-ethyl-8-phenylpurin-6-yl)amine] | 8.40 |
| Cn1c(-c2ccc(F)cc2)nc2c(NC3CCCC3)ncnc21 [cyclopentyl[8-(4-fluorophenyl)-9-methylpurin-6-yl]amine] | 9.00 |
| Cn1c(-c2cccnc2)nc2c(NC3CCCC3)ncnc21 [cyclopentyl(9-methyl-8-(3-pyridyl)purin-6-yl)amine] | 7.08 |
| Cn1c(-c2ccc(Cl)cc2)nc2c(NC3CCCC3)ncnc21 [[8-(4-chlorophenyl)-9-methylpurin-6-yl]cyclopentylamine] | 8.00 |

Target: T3, Human-A2A (HEK-A2A) (Homo sapiens, UniProt P29274)
T3 construct: expressed in transfected cells; host or cells: HEK-293 cells, stably transfected (HEK-A2A)
Experiment: Radioligand binding, human A2A AdoR, HEK-A2A membranes
Conditions: not given
Experimental: as §1, §2, §3

T3 sequence (P29274 whole entry): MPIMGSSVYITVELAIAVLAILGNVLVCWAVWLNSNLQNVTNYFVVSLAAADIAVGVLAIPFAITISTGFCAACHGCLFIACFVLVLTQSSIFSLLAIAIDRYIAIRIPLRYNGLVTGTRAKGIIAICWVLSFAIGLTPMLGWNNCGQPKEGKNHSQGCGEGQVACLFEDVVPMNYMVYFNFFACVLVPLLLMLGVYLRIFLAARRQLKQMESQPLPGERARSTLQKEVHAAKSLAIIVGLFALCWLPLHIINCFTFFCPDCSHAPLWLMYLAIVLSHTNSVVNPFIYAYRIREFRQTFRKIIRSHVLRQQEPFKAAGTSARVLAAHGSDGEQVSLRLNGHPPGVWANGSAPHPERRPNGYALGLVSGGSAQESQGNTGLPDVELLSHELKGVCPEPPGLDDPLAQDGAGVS

| Structure (SMILES) | pKi |
| --- | --- |
| Cn1c(-c2ccc(O)cc2)nc2c(NC3CCCC3)ncnc21 [4-[6-(cyclopentylamino)-9-methylpurin-8-yl]phenol] | < 5.30 |

Same assay, conditions: 3H-ZM241385 radioligand; HEK-A2A membranes; read-out: Ki (low) Human-A2A HEK-A2A

| pKi | Structure (SMILES) |
| --- | --- |
| < 5.30 | COc1ccc(-c2nc3c(NC4CCCC4)ncnc3n2C)cc1 [cyclopentyl[8-(4-methoxyphenyl)-9-methylpurin-6-yl]amine] |
| < 5.30 | Cc1ccc(-c2nc3c(NC4CCCC4)ncnc3n2C)cc1 [cyclopentyl[9-methyl-8-(4-methylphenyl)purin-6-yl]amine] |
| < 5.30 | Cc1ccccc1-c1nc2c(NC3CCCC3)ncnc2n1C [cyclopentyl[9-methyl-8-(2-methylphenyl)purin-6-yl]amine] |
| < 5.30 | Cc1cccc(-c2nc3c(NC4CCCC4)ncnc3n2C)c1 [cyclopentyl[9-methyl-8-(3-methylphenyl)purin-6-yl]amine] |

The remaining lines, values behind:

| Structure (SMILES) | pKi |
| --- | --- |
| CCCn1c(-c2ccccc2)nc2c(NC3CCCCC3)ncnc21 [cyclohexyl(8-phenyl-9-propylpurin-6-yl)amine] | < 5.30 |
| Cn1c(-c2cccc(Cl)c2)nc2c(NC3CCCC3)ncnc21 [[8-(3-chlorophenyl)-9-methylpurin-6-yl]cyclopentylamine] | < 5.30 |
| Cn1c(-c2ccccc2)nc2c(NC3CCCCC3)ncnc21 [cyclohexyl(9-methyl-8-phenylpurin-6-yl)amine] | < 5.30 |
| CCn1c(-c2ccccc2)nc2c(NC3CCCCC3)ncnc21 [cyclohexyl(9-ethyl-8-phenylpurin-6-yl)amine] | < 5.30 |
| Cn1c(-c2ccc(F)cc2)nc2c(NC3CCCC3)ncnc21 [cyclopentyl[8-(4-fluorophenyl)-9-methylpurin-6-yl]amine] | < 5.30 |
| Cn1c(-c2cccnc2)nc2c(NC3CCCC3)ncnc21 [cyclopentyl(9-methyl-8-(3-pyridyl)purin-6-yl)amine] | < 5.30 |
| Cn1c(-c2ccc(Cl)cc2)nc2c(NC3CCCC3)ncnc21 [[8-(4-chlorophenyl)-9-methylpurin-6-yl]cyclopentylamine] | < 5.30 |

Target: T4, Human-A2B (HEK-A2B) (Homo sapiens, UniProt P29275)
T4 construct: expressed in transfected cells; host or cells: HEK-293 cells, stably transfected (HEK-A2B)
T4 sequence (P29275 1-332): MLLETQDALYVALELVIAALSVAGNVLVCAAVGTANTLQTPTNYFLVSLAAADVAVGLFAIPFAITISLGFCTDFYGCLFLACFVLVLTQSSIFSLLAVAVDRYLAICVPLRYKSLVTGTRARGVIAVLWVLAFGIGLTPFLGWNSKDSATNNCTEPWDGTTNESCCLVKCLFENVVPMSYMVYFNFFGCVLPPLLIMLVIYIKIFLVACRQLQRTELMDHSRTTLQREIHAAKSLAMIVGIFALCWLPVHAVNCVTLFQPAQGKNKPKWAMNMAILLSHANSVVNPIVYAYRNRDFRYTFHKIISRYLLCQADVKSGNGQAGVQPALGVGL
Experiment: Radioligand binding, human A2B AdoR, HEK-A2B membranes
Conditions: not given
Experimental: as §1, §2
[…] The amounts of radioligands that bound to the GF/B filter plates were determined by scintillation counting. Nonspecific binding were determined in the presence of 1-10 μM of cold ligands. Bmax and KD values were calculated using GraphPad software.

| Structure (SMILES) | pKi |
| --- | --- |
| Cn1c(-c2ccc(O)cc2)nc2c(NC3CCCC3)ncnc21 [4-[6-(cyclopentylamino)-9-methylpurin-8-yl]phenol] | < 5.18 |

Same assay, conditions: 3H-CGS21680 radioligand (footnote c); HEK-A2B membranes; read-out: Ki (low) Human-A2B HEK-A2B

| pKi | Structure (SMILES) |
| --- | --- |
| < 5.18 | COc1ccc(-c2nc3c(NC4CCCC4)ncnc3n2C)cc1 [cyclopentyl[8-(4-methoxyphenyl)-9-methylpurin-6-yl]amine] |
| < 5.18 | Cc1ccc(-c2nc3c(NC4CCCC4)ncnc3n2C)cc1 [cyclopentyl[9-methyl-8-(4-methylphenyl)purin-6-yl]amine] |
| < 5.18 | Cc1ccccc1-c1nc2c(NC3CCCC3)ncnc2n1C [cyclopentyl[9-methyl-8-(2-methylphenyl)purin-6-yl]amine] |
| < 5.18 | Cc1cccc(-c2nc3c(NC4CCCC4)ncnc3n2C)c1 [cyclopentyl[9-methyl-8-(3-methylphenyl)purin-6-yl]amine] |

Continued, molecule first:

| Structure (SMILES) | pKi |
| --- | --- |
| CCCn1c(-c2ccccc2)nc2c(NC3CCCCC3)ncnc21 [cyclohexyl(8-phenyl-9-propylpurin-6-yl)amine] | < 5.18 |
| Cn1c(-c2cccc(Cl)c2)nc2c(NC3CCCC3)ncnc21 [[8-(3-chlorophenyl)-9-methylpurin-6-yl]cyclopentylamine] | < 5.18 |
| Cn1c(-c2ccccc2)nc2c(NC3CCCCC3)ncnc21 [cyclohexyl(9-methyl-8-phenylpurin-6-yl)amine] | < 5.18 |
| CCn1c(-c2ccccc2)nc2c(NC3CCCCC3)ncnc21 [cyclohexyl(9-ethyl-8-phenylpurin-6-yl)amine] | < 5.18 |
| Cn1c(-c2ccc(F)cc2)nc2c(NC3CCCC3)ncnc21 [cyclopentyl[8-(4-fluorophenyl)-9-methylpurin-6-yl]amine] | < 5.18 |
| Cn1c(-c2cccnc2)nc2c(NC3CCCC3)ncnc21 [cyclopentyl(9-methyl-8-(3-pyridyl)purin-6-yl)amine] | < 5.18 |
| Cn1c(-c2ccc(Cl)cc2)nc2c(NC3CCCC3)ncnc21 [[8-(4-chlorophenyl)-9-methylpurin-6-yl]cyclopentylamine] | < 5.18 |

From patent publication US7517888B2, “A1 adenosine receptor antagonists” (CV Therapeutics, Inc., priority 2004, dated 2009)
